Where a name gives a salt, the structure may show the parent alone. Read-outs that look alike come from different tables or passages of the source.
Biological target: SARS-CoV-2 3CLpro (Severe acute respiratory syndrome coronavirus 2, UniProt P0DTD1)
Assay: biochemical
Assay type: biochemical
Set-up: Replicate_1 / Replicate_2 / mean / mean (LOPAC_screen_w_protease): unit not given here
Settings: for inhibition at 5 µM: 4 h; for mean (LOPAC screen with protease) / Replicate_1 (LOPAC screen with protease) / Replicate_2 (LOPAC screen with protease): primary screen at 5 µM
[1] = sheet LOPAC_screen_w_protease, primary screen with protease, mean of two replicates
[2] = sheet LOPAC_screen_w_protease, primary screen with protease, replicate 1
[3] = sheet LOPAC_screen_w_protease, primary screen of LOPAC1280 at 5 µM with protease, mean of the two replicates, read-out: mean
[4] = sheet LOPAC_screen_w_protease, primary screen of LOPAC1280 at 5 µM with protease, replicate 1, read-out: Replicate_1
[5] = sheet LOPAC_screen_w_protease, primary screen of LOPAC1280 at 5 µM with protease, replicate 2, read-out: Replicate_2
[6] = sheet LOPAC_screen_w_protease, primary screen with protease, compound at 5 µM, mean of two replicates, read-out: mean
[7] = sheet LOPAC_screen_w_protease, primary screen with protease, compound at 5 µM, replicate 1, read-out: Replicate_1
[8] = sheet LOPAC_screen_w_protease, primary screen with protease, compound at 5 µM, replicate 2, read-out: Replicate_2
[9] = sheet LOPAC_screen_w_protease, primary screen of LOPAC1280 at 5 µM with protease, mean of the two replicates
[10] = sheet LOPAC_screen_w_protease, primary screen of LOPAC1280 at 5 µM with protease, replicate 1
[11] = sheet LOPAC_screen_w_protease, primary screen of LOPAC1280 at 5 µM with protease, replicate 2
[12] = sheet LOPAC_screen_w_protease, LOPAC1280 at 5 µM, mean of two replicates
[13] = sheet LOPAC_screen_w_protease, LOPAC1280 at 5 µM, replicate 1
[14] = sheet LOPAC_screen_w_protease, LOPAC1280 at 5 µM, replicate 2
[15] = sheet LOPAC_screen_w_protease, primary screen with protease, replicate 2
[16] = sheet LOPAC_screen_w_protease, LOPAC1280 primary screen at 5 µM, with protease, replicate 1
[17] = sheet LOPAC_screen_w_protease, LOPAC1280 primary screen at 5 µM, with protease, replicate 2
[18] = sheet LOPAC_screen_w_protease, mean of two replicates
[19] = sheet LOPAC_screen_w_protease, replicate 1
[20] = sheet LOPAC_screen_w_protease, replicate 2
[21] = sheet LOPAC_screen_w_protease, primary screen with protease, compound at 5 µM, mean of two replicates
[22] = sheet LOPAC_screen_w_protease, primary screen with protease, compound at 5 µM, replicate 1
[23] = sheet LOPAC_screen_w_protease, primary screen with protease, compound at 5 µM, replicate 2

Compound: S(-)-DS 121 hydrochloride
- mean [1]: 2.32
- Replicate_1 [2]: 2.977

Compound: CC(CCc1ccccc1)NC(C)C(O)c1ccc(O)cc1 (stereo not drawn) [Nylidrin hydrochloride]
- inhibition at 5 µM [3]: 3.76%
- inhibition at 5 µM [4]: 4.88%
- inhibition at 5 µM [5]: 2.65%

Compound: CSC(N)=NCCC[C@H](N)C(=O)O [S-Methyl-L-thiocitrulline acetate]
- inhibition at 5 µM [6]: 2.62%
- inhibition at 5 µM [7]: 2.21%
- inhibition at 5 µM [8]: 3.04%

Compound: N[C@@H]1CONC1=O (racemic) [DL-Cycloserine]
- mean [9]: 3.186
- Replicate_1 [10]: 2.383
- Replicate_2 [11]: 3.989

Compound: COc1cc(C=C(C#N)C#N)cc(O)c1O [Tyrphostin AG 34]
- mean [9]: 3.625
- Replicate_1 [10]: 3.8503
- Replicate_2 [11]: 3.4006

Compound: CCCCCCCCCCCCCCCCOCC(COCC(F)(F)F)OP(=O)(O)OC (stereo not drawn) [MJ33]
- Replicate_1: 1.4444
- Replicate_2: -0.2702
- mean: 0.5871

Compound: O=C(O)C=Cc1c[nH]cn1 [4-Imidazoleacrylic acid]
- mean [12]: 0.9588
- Replicate_1 [13]: 1.559
- Replicate_2 [14]: 0.3591

Compound: C#CCn1c(=O)c2c(ncn2C)n(C)c1=O [3,7-Dimethyl-I-propargylxanthine]
- mean [1]: 2.439
- Replicate_1 [2]: 3.614
- Replicate_2 [15]: 1.263

Compound: O=c1c(O)c(-c2ccc(O)cc2O)oc2cc(O)cc(O)c12 [Morin]
- inhibition at 5 µM (read-out: Replicate_1): 6.85%
- inhibition at 5 µM (read-out: Replicate_2): 5.63%
- inhibition at 5 µM (read-out: mean): 6.24%

Compound: CC(O)C(C)OC(=O)[C@@H]1C[C@@H]2c3cccc4c3c(cn4C(C)C)C[C@H]2N(C)C1.O=C(O)/C=C\C(=O)O (stereo partly drawn) [LY-53,857 maleate]
- mean [9]: 3.324
- Replicate_1 [10]: 1.754
- Replicate_2 [11]: 4.894

Compound: O=C(O)c1cc(O)cc(C(=O)O)n1 [Chelidamic acid]
- inhibition at 5 µM [6]: 3.14%
- inhibition at 5 µM [7]: 2.7%
- inhibition at 5 µM [8]: 3.58%

Compound: O=C(c1ccc(F)cc1)C1CCN(CCn2c(=O)[nH]c3ccccc3c2=O)CC1 [Ketanserin tartrate]
- inhibition at 5 µM (sheet LOPAC_screen_w_protease, LOPAC1280 primary screen at 5 µM, with protease, mean of two replicates, read-out: mean): -1.02%
- inhibition at 5 µM (sheet LOPAC_screen_w_protease, LOPAC1280 primary screen at 5 µM, with protease, replicate 1, read-out: Replicate_1): 1.01%
- inhibition at 5 µM (sheet LOPAC_screen_w_protease, LOPAC1280 primary screen at 5 µM, with protease, replicate 2, read-out: Replicate_2): -3.04%

Compound: C[C@@H]1O[C@@H](O[C@H]2C[C@@H](O)[C@]3(CO)[C@H]4[C@H](O)C[C@]5(C)[C@@H]([C@@H]6COC(=O)C6)CC[C@]5(O)[C@@H]4CC[C@]3(O)C2)[C@H](O)[C@H](O)[C@H]1O [Dihydroouabain]
- mean [9]: 3.947
- Replicate_1 [10]: 5.984
- Replicate_2 [11]: 1.91

Compound: CC(N)=NCc1cccc(CN)c1.Cl.Cl [1400W dihydrochloride]
- mean (sheet LOPAC_screen_w_protease, LOPAC1280 primary screen at 5 µM, with protease, mean of the two replicates): 0.5066
- Replicate_1 [16]: 0.5348
- Replicate_2 [17]: 0.4785

Compound: CC(=O)OCC1=C(C(=O)O)N2C(=O)[C@@H](NC(=O)CSc3ccncc3)[C@H]2SC1 [Cephapirin sodium]
- inhibition at 5 µM [3]: 4.07%
- inhibition at 5 µM [4]: 3.36%
- inhibition at 5 µM [5]: 4.79%

Compound: CC(C)CC(N)CSSCC(N)CC(C)C.Cl.Cl [L-Leucinethiol, oxidized dihydrochloride]
- mean (LOPAC screen with protease) [18]: 45.1144
- Replicate_1 (LOPAC screen with protease) [19]: 48.0888
- Replicate_2 (LOPAC screen with protease) [20]: 42.1401

Compound: O=C(Nc1cc(C(=O)Nc2ccc(S(=O)(=O)[O-])cc2S(=O)(=O)[O-])cc(C(=O)Nc2ccc(S(=O)(=O)[O-])cc2S(=O)(=O)[O-])c1)Nc1cc(C(=O)Nc2ccc(S(=O)(=O)[O-])cc2S(=O)(=O)[O-])cc(C(=O)Nc2ccc(S(=O)(=O)[O-])cc2S(=O)(=O)[O-])c1.[Na+].[Na+].[Na+].[Na+].[Na+].[Na+].[Na+].[Na+] [NF449 octasodium salt]
- mean [9]: 4.044
- Replicate_1 [10]: 4.589
- Replicate_2 [11]: 3.499

Compound: CCCCCCCCCCCCCCCCCCNC(=O)OCC(COP(=O)([O-])OCC[n+]1ccsc1)OC (stereo not drawn) [CV-3988]
- mean (LOPAC_screen_w_protease) (LOPAC1280 primary screen with protease, 5 µM compound, mean of two replicates): 1.326
- Replicate_1 (LOPAC_screen_w_protease) (LOPAC1280 primary screen with protease, 5 µM compound, replicate 1): -0.07699
- Replicate_2 (LOPAC_screen_w_protease) (LOPAC1280 primary screen with protease, 5 µM compound, replicate 2): 2.73

Compound: CC12NC(Cc3ccccc31)c1ccccc12.O=C(O)/C=C\C(=O)O (single isomer, unassigned; (+)) [(+)-MK-801 hydrogen maleate]
- mean [21]: 2.6873
- Replicate_1 [22]: 4.9061
- Replicate_2 [23]: 0.4685

Compound: COc1ccc2c(c1O)-c1cccc3c1[C@@H](C2)N(C)CC3 [R(−)-apocodeine, reference compound]
- inhibition of 3CLpro in the primary screen (5 µM): 6%

Compound: CCCC(CCC)C(=O)O [Valproic acid sodium]
- inhibition at 5 µM [3]: 3.18%
- inhibition at 5 µM [4]: 2.68%
- inhibition at 5 µM [5]: 3.67%

Compound: Cc1nc(-c2ccc(-c3ccc(C(=O)N4CCc5cc6c(cc54)C4(CCN(C)CC4)CO6)cc3)c(C)c2)no1.Cl [SB 224289 hydrochloride]
- mean [12]: 1.002
- Replicate_1 [13]: 2.397
- Replicate_2 [14]: -0.3926

Compound: NC(=O)OCC(COC(N)=O)c1ccccc1 [Felbamate]
- inhibition at 5 µM (sheet LOPAC_screen_w_protease, primary screen with protease, mean of two replicates, read-out: mean): 2.23%
- inhibition at 5 µM (sheet LOPAC_screen_w_protease, primary screen with protease, replicate 1, read-out: Replicate_1): 3.62%
- inhibition at 5 µM (sheet LOPAC_screen_w_protease, primary screen with protease, replicate 2, read-out: Replicate_2): 0.843%

Compound: CCCCCCCCCCC/C=C\C(C)(C)/C=C\CCCC(=O)O [7,7-Dimethyl-(5Z,8Z)-eicosadienoic acid]
- mean [1]: 2.303
- Replicate_1 [2]: 4.092
- Replicate_2 [15]: 0.5145

Compound: C[C@@H](NC(=O)/C(C#N)=C/c1ccc(O)c(O)c1)c1ccccc1 [Tyrphostin AG 527]
- mean [21]: 2.942
- Replicate_1 [22]: 4.113
- Replicate_2 [23]: 1.771

Compound: CCC(C)N(C)C(=O)c1cc2ccccc2c(-c2ccccc2Cl)n1 (stereo not drawn) [PK 11195]
- inhibition at 5 µM [6]: 3.14%
- inhibition at 5 µM [7]: 1.87%
- inhibition at 5 µM [8]: 4.41%

Compound: CC1CNCCN1S(=O)(=O)c1cccc2cnccc12.Cl.Cl (stereo not drawn)
- mean (LOPAC screen with protease) [18]: 12.1111
- Replicate_1 (LOPAC screen with protease) [19]: 12.4365
- Replicate_2 (LOPAC screen with protease) [20]: 11.7856

Compound: Br.Cc1o[nH]c(=O)c1CC(N)C(=O)O (racemic) [(±)-AMPA hydrobromide]
- mean [1]: 2.246
- Replicate_1 [2]: 3.765
- Replicate_2 [15]: 0.7264

Compound: C[N+](C)(C)CCCCCC[N+](C)(C)C [Hexamethonium bromide]
- inhibition at 5 µM (sheet LOPAC_screen_w_protease, primary screen with protease, 5 µM, mean of two replicates, read-out: mean): 0.248%
- inhibition at 5 µM (sheet LOPAC_screen_w_protease, primary screen with protease, 5 µM, replicate 1, read-out: Replicate_1): 1.66%
- inhibition at 5 µM (sheet LOPAC_screen_w_protease, primary screen with protease, 5 µM, replicate 2, read-out: Replicate_2): -1.17%

Compound: CC(C)N(CCC(C(N)=O)(c1ccccc1)c1ccccn1)C(C)C (stereo not drawn) [Disopyramide]
- inhibition at 5 µM [3]: 3.48%
- inhibition at 5 µM [4]: 4.56%
- inhibition at 5 µM [5]: 2.4%

Compound: Cc1cccc(C(=O)NCN2CCN(c3ccccc3C#N)CC2)c1.O=C(O)/C=C\C(=O)O [PD 168,077 maleate]
- mean [12]: 1.169
- Replicate_1 [13]: 0.792
- Replicate_2 [14]: 1.545

Compound: O=C(O)CCC(=O)N1CCC[C@H]1C(=O)O [N-Succinyl-L-proline]
- mean (sheet LOPAC_screen_w_protease, LOPAC1280 primary screen at 5 µM, with protease, mean of two replicates): -1.024
- Replicate_1 [16]: 1.826
- Replicate_2 [17]: -3.873

Compound: C[N+]1(C)CCC(OC(=O)C(c2ccccc2)c2ccccc2)CC1.[I-] [4-DAMP methiodide]
- mean [1]: 2.136
- Replicate_1 [2]: 2.4758
- Replicate_2 [15]: 1.796

Compound: NC(=O)c1cnccn1 [Pyrazinecarboxamide]
- mean [12]: 0.9233
- Replicate_1 [13]: 1.572
- Replicate_2 [14]: 0.2741

Compound: CNc1ncnc2c1ncn2[C@@H]1O[C@H](CO)[C@@H](O)[C@H]1O [N6-Methyladenosine]
- mean [21]: 2.9788
- Replicate_1 [22]: 2.994
- Replicate_2 [23]: 2.964

Compound: CC(=O)NNC(=O)N1Cc2ccccc2Oc2ccc(Cl)cc21 [SC 19220]
- mean (sheet LOPAC_screen_w_protease, primary screen with protease, 5 µM, mean of two replicates): 0.1868
- Replicate_1 (sheet LOPAC_screen_w_protease, primary screen with protease, 5 µM, replicate 1): 1.1062
- Replicate_2 (sheet LOPAC_screen_w_protease, primary screen with protease, 5 µM, replicate 2): -0.7326

Reference: article PMC7587356, “High-Throughput Screening for Inhibitors of the SARS-CoV-2 Protease Using a FRET-Biosensor” (Molecules, 2020)
